Measured values reported in patent publication US20220330549A1, “USE OF N-BENZYLBENZAMIDE-BASED COMPOUND AS HERBICIDE” (Northwest A&F University, priority 2020, published 2022).

Assays:
Format in all cases: in vivo
Barnyard grass [1] = assay: Herbicidal activity test for indoor pre-emergence soil treatment; parameters: key: level 1-9; higher = more weed remaining vs blank control; conditions: 150 g a.i./ha, visual inspection 21 days after treatment
How it was run: (§1)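 Pre-emergence test following NY/T 1155.3-2006: weed seeds were sown in moistened neutral sandy loam (≤2% organic matter) and covered with 0.5–2.0 cm of soil. After 24 h, the soil was sprayed with a 10% EC diluted in water at 150 g(a.i.)/ha. Damage was scored visually on a 1–9 scale at 21 days.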

Piemarker [2] = assay: as above; parameters: key: level 1-9; higher = more weed remaining vs blank control; conditions: 150 g a.i./ha, visual inspection 21 days after treatment
How it was run: as §1

green bristlegrass [3] = assay: as above; parameters: key: level 1-9; higher = more weed remaining vs blank control; conditions: 150 g a.i./ha, visual inspection 21 days after treatment
How it was run: as §1

Amaranthus retroflexus [4] = assay: as above; parameters: key: 1-9 levels; higher = more weed remaining vs blank control; conditions: 150 g a.i./ha, visual inspection 21 days after treatment
How it was run: as §1

Digitaria sanguinalis [5] = assay: as above; parameters: key: 1-9 levels; higher = more weed remaining vs blank control; conditions: 150 g a.i./ha, visual inspection 21 days after treatment
How it was run: as §1

Humulus scandens [6] = assay: as above; conditions: 150 g a.i./ha, visual inspection 21 days after treatment
How it was run: as §1

Amaranthus retroflexus [7] = assay: Herbicidal activity test for indoor post-emergence spraying on stems and leaves; parameters: key: grade level by weed remaining vs blank control, e.g. 5 = 10.1-15%; conditions: 150 g a.i./ha, visual inspection 21 days after treatment
How it was run: (§2)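 Greenhouse-grown weeds, post-emergence foliar spray (NY/T 1155.4-2006 method); visual scoring at 21 d post-treatment as levels vs. untreated blank control (e.g., level 5 = 10.1–15%, level 8 = 35.1–67.5% of control weed).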

Barnyard grass [8] = assay: as above; parameters: key: grade level by weed remaining vs blank control, e.g. 5 = 10.1-15%; conditions: 150 g a.i./ha, visual inspection 21 days after treatment
How it was run: as §2

Digitaria sanguinalis [9] = assay: as above; parameters: key: grade level by weed remaining vs blank control, e.g. 5 = 10.1-15%; conditions: 150 g a.i./ha, visual inspection 21 days after treatment
How it was run: as §2

Humulus scandens [10] = assay: as above; parameters: key: grade level by weed remaining vs blank control, e.g. 5 = 10.1-15%; conditions: 150 g a.i./ha, visual inspection 21 days after treatment
How it was run: as §2

Piemarker [11] = assay: as above; parameters: key: grade level by weed remaining vs blank control, e.g. 5 = 10.1-15%; conditions: 150 g a.i./ha, visual inspection 21 days after treatment
How it was run: as §2

green bristlegrass [12] = assay: as above; parameters: key: grade level by weed remaining vs blank control, e.g. 5 = 10.1-15%; conditions: 150 g a.i./ha, visual inspection 21 days after treatment
How it was run: as §2

Broadleaf weed = assay: Post-emergence herbicidal activity test in a paddy field; parameters: key: level scale; higher level = more weed left vs blank control; conditions: 150 g a.i./ha (penoxsulam control 250 g(a.i.)/h)
How it was run: (§3)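 Efficacy was visually estimated 15 and 30 days after spraying, grading weed coverage relative to an untreated neighbouring plot (level 2 = 0 to 2.5%, level 9 = 67.6 to 100%). Treatments were 150 g(a.i.)/ha from 10% emulsifiable concentrates applied at the 4-5 leaf rice stage, four repeats of 50 m^2 each.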

Cyperaceae = assay: as above; parameters: key: level scale; higher level = more weed left vs blank control; conditions: 150 g a.i./ha (penoxsulam control 250 g(a.i.)/h)
How it was run: as §3

Gramineae = assay: as above; parameters: key: level scale; higher level = more weed left vs blank control; conditions: 150 g a.i./ha (penoxsulam control 250 g(a.i.)/h)
How it was run: as §3

Acalypha australis = assay: Field test for weed control in a corn field; conditions: 150 g a.i./ha, after treatment
How it was run: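 Herbicidal activity against weeds was assessed in corn plots by the GB/T 17980.42-2000 method. Corn at the 2–5 leaf stage received water sprays of 10% emulsifiable concentrates at 150 g(a.i.)/ha, four repeats per treatment over 20 m^2. A 25% mesotrione oil dispersion was the reference. Damage symptoms and severity were rated on levels 1-9 relative to weeds in the blank control area.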

Amaranthus retroflexus [13] = assay: Field test for weed control in a corn field; conditions: 150 g a.i./ha, 30 days after treatment
How it was run: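 Post-emergence control of Amaranthus retroflexus was assessed in corn plots using the GB/T 17980.42-2000 method. Emulsifiable concentrates (10%) in water were applied by spraying at the 2- to 5-leaf crop stage on 20 m^2 plots, four replicates each, alongside a mesotrione 25% oil dispersion reference. Herbicidal activity was scored on 1-9 levels by weed amount relative to blank control areas.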

Barnyard grass [14] = assay: Field test for weed control in a corn field; conditions: 150 g a.i./ha, 30 days after treatment
How it was run: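 Herbicidal activity against barnyard grass was assessed in corn field plots of 20 m^2, with four replicates per treatment. Compounds were applied as water-diluted 10% emulsifiable concentrates at 150 g(a.i.)/ha at the 2-5 leaf corn stage, with 25% mesotrione oil dispersion as the reference agent. Damage was scored on a 1-9 scale against untreated blank plots.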

Chenopodium album = assay: Field test for weed control in a corn field; conditions: 150 g a.i./ha, after treatment
How it was run: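 Field weed-control testing in corn, run per GB/T 17980.42-2000, scored Chenopodium album on a 1-9 level scale, where each level matches a percentage range of weed remaining relative to the blank control area. Sprays of 10% emulsifiable concentrates in water delivered 150 g(a.i.)/ha at the corn 2-leaf to 5-leaf stage on 20 m^2 plots, four replicates each. Mesotrione 25% oil dispersion served as reference.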

Convolvulus arvensis = assay: Field test for weed control in a corn field; conditions: 150 g a.i./ha, after treatment
How it was run: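 Post-emergence herbicidal activity on Convolvulus arvensis was scored in a corn field on a 1-9 scale, based on symptoms and damage severity. Each level corresponds to the weed remaining as a percentage of the blank control area. Sprays of 10% emulsifiable concentrate at 150 g(a.i.)/ha went on at the corn 2–5 leaf stage, with four replicates of 20 m^2 per treatment.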

Digitaria sanguinalis [15] = assay: Field test for weed control in a corn field; conditions: 150 g a.i./ha, after treatment
How it was run: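 Field trial in a corn field following GB/T 17980.42-2000. Test compounds were formulated as 10% emulsifiable concentrates, diluted in water and sprayed post-emergence at 150 g(a.i.)/ha when corn had 2 to 5 leaves, with 4 replicates on 20 m^2 plots. Control of Digitaria sanguinalis was scored on a 1-9 scale based on weed damage relative to the untreated blank area.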

Portulaca oleracea = assay: Field test for weed control in a corn field; conditions: 150 g a.i./ha, after treatment
How it was run: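 Post-emergence weed control was evaluated in a corn field by the GB/T 17980.42-2000 method. Emulsifiable concentrates (10%) in water were applied as sprays at 150 g(a.i.)/ha at the 2-5 leaf corn stage, in four replicate 20 m^2 plots. A 25% mesotrione oil dispersion served as control agent. Effects were graded 1-9 relative to weed remaining in blank control areas.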

Solanum nigrum = assay: Field test for weed control in a corn field; conditions: 150 g a.i./ha, 30 days after treatment
How it was run: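 In a corn field trial based on GB/T 17980.42-2000, 10% emulsifiable concentrates diluted in water were sprayed at 150 g(a.i.)/ha at the 2 to 5 leaf stage of corn. Each treatment used 20 m^2 plots and was repeated 4 times, with 25% mesotrione oil dispersion as the reference agent. Solanum nigrum damage was scored on a 1-9 scale against blank control plots.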

goosegrass = assay: Field test for weed control in a corn field; conditions: 150 g a.i./ha, after treatment
How it was run: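 In this field trial in corn, run per GB/T 17980.42-2000, test agents prepared as 10% emulsifiable concentrates were applied in water as sprays at 150 g(a.i.)/ha at the 2- to 5-leaf corn stage. Each treatment covered 20 m^2 and was repeated 4 times. Goosegrass control was scored 1-9 relative to weed remaining in blank control areas.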

green bristlegrass [16] = assay: Field test for weed control in a corn field; conditions: 150 g a.i./ha, after treatment
How it was run: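 Herbicidal activity against green bristlegrass was assessed in corn field plots of 20 m^2 per GB/T 17980.42-2000. Test agents, formulated as 10% emulsifiable concentrates, were applied in water at 150 g(a.i.)/ha at the corn 2 leaves to 5 leaves stage, repeated 4 times. A 25% mesotrione oil dispersion served as the control agent, and weed damage was rated on levels 1-9.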

nutgrass flatsedge = assay: Field test for weed control in a corn field; conditions: 150 g a.i./ha, after treatment
How it was run: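 Herbicidal effect on nutgrass flatsedge was measured in a field planted with corn, using the GB/T 17980.42-2000 method. Emulsifiable concentrates (10%) in water were sprayed at 150 g(a.i.)/ha during the 2-leaf to 5-leaf corn stage, on 20 m^2 plots repeated 4 times. 25% mesotrione oil dispersion was the control agent. Activity was scored from 1 to 9 by weed remaining relative to blank control plots.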

SMILES	Herbicidal Activity Barnyard grass (Barnyard grass [1])	Herbicidal Activity Piemarker (Piemarker [2])	Herbicidal Activity Green bristlegrass (green bristlegrass [3])	Herbicidal Activity Amaranthus retroflexus (Amaranthus retroflexus [4])	Herbicidal Activity Digitaria sanguinalis (Digitaria sanguinalis [5])	Herbicidal Activity Humulus scandens (Humulus scandens [6])	Herbicidal Activity Amaranthus retroflexus (Amaranthus retroflexus [7])	Herbicidal Activity Barnyard grass (Barnyard grass [8])	Herbicidal Activity Digitaria sanguinalis (Digitaria sanguinalis [9])	Herbicidal Activity Humulus scandens (Humulus scandens [10])	Herbicidal Activity Piemarker (Piemarker [11])	Herbicidal Activity Green bristlegrass (green bristlegrass [12])	Herbicidal activity 15 days after treatment Broadleaf weed (Broadleaf weed)	Herbicidal activity 30 days after treatment Broadleaf weed (Broadleaf weed)	Herbicidal activity 15 days after treatment Cyperaceae (Cyperaceae)	Herbicidal activity 30 days after treatment Cyperaceae (Cyperaceae)	Herbicidal activity 15 days after treatment Gramineae (Gramineae)	Herbicidal activity 30 days after treatment Gramineae (Gramineae)	Post-emergence weed control effect, Acalypha australis (Acalypha australis)	Post-emergence weed control effect, Amaranthus retroflexus (Amaranthus retroflexus [13])	also measured
COc1ccc(OC)c(C(=O)NCc2cc(Cl)cc(Cl)c2)c1 [Compound A29]	1	1	1	1	2 (equivalent to 0 to 2.5% of the weed in the blank control area)	2 (equivalent to 0 to 2.5% of the weed in the blank control area)	1	1	1	1	1	1	1	1	1	2 (equivalent to 0 to 2.5% of the weed in the blank control area)	2 (equivalent to 0 to 2.5% of the weed in the blank control area)	1	1	1	Post-emergence weed control effect, Barnyard grass (Barnyard grass [14]): 1; Post-emergence weed control effect, Chenopodium album (Chenopodium album): 1; Post-emergence weed control effect, Convolvulus arvensis (Convolvulus arvensis): 2 (equivalent to 0 to 2.5% of the weed in the blank control area); Post-emergence weed control effect, Digitaria sanguinalis (Digitaria sanguinalis [15]): 2 (equivalent to 0 to 2.5% of the weed in the blank control area); Post-emergence weed control effect, Portulaca oleracea (Portulaca oleracea): 1; Post-emergence weed control effect, Solanum nigrum (Solanum nigrum): 2 (equivalent to 0 to 2.5% of the weed in the blank control area); Post-emergence weed control effect, Goose grass (goosegrass): 2 (equivalent to 0 to 2.5% of the weed in the blank control area); Post-emergence weed control effect, Green bristlegrass (green bristlegrass [16]): 2 (equivalent to 0 to 2.5% of the weed in the blank control area); Post-emergence weed control effect, Nutgrass flatsedge (nutgrass flatsedge): 2 (equivalent to 0 to 2.5% of the weed in the blank control area)
COc1ccccc1C(=O)NCc1cccc(F)c1 [Compound A01, N-(3-fluorobenzylamine)-2-methoxybenzamide]	1	3 (equivalent to 2.6 to 5% of the weed in the blank control area)	1	3 (equivalent to 2.6 to 5% of the weed in the blank control area)	1	4 (equivalent to 5.1 to 10% of the weed in the blank control area)	1	1	1	1	1	1	1	2 (equivalent to 0 to 2.5% of the weed in the blank control area)	1	2 (equivalent to 0 to 2.5% of the weed in the blank control area)	2 (equivalent to 0 to 2.5% of the weed in the blank control area)	2 (equivalent to 0 to 2.5% of the weed in the blank control area)	2 (equivalent to 0 to 2.5% of the weed in the blank control area)	1	Post-emergence weed control effect, Barnyard grass (Barnyard grass [14]): 2 (equivalent to 0 to 2.5% of the weed in the blank control area); Post-emergence weed control effect, Chenopodium album (Chenopodium album): 1; Post-emergence weed control effect, Convolvulus arvensis (Convolvulus arvensis): 1; Post-emergence weed control effect, Digitaria sanguinalis (Digitaria sanguinalis [15]): 2 (equivalent to 0 to 2.5% of the weed in the blank control area); Post-emergence weed control effect, Portulaca oleracea (Portulaca oleracea): 1; Post-emergence weed control effect, Solanum nigrum (Solanum nigrum): 2 (equivalent to 0 to 2.5% of the weed in the blank control area); Post-emergence weed control effect, Goose grass (goosegrass): 2 (equivalent to 0 to 2.5% of the weed in the blank control area); Post-emergence weed control effect, Green bristlegrass (green bristlegrass [16]): 1; Post-emergence weed control effect, Nutgrass flatsedge (nutgrass flatsedge): 2 (equivalent to 0 to 2.5% of the weed in the blank control area)
